Reference: paper PMC7215373, “Design, Synthesis, and Anticancer Evaluation of Novel Indole Derivatives of Ursolic Acid as Potential Topoisomerase II Inhibitors” (International Journal of Molecular Sciences, 2020)

How the values were obtained:
DNA topoisomerase I = target: T1, DNA topoisomerase I (Bos taurus, UniProt F1MN93); assay: Topoisomerase I relaxation assay (supercoiled pBR322); assay type: biochemical; details: for inhibition at 20 µM: 20 μM compound, read-out: Topo I Inhibition (%) 20 μM; for inhibition at 100 µM: 100 μM compound, read-out: Topo I Inhibition (%) 100 μM
T1 construct: purchased TaKaRa, Kyoto, Japan
T1 sequence (F1MN93 1-767): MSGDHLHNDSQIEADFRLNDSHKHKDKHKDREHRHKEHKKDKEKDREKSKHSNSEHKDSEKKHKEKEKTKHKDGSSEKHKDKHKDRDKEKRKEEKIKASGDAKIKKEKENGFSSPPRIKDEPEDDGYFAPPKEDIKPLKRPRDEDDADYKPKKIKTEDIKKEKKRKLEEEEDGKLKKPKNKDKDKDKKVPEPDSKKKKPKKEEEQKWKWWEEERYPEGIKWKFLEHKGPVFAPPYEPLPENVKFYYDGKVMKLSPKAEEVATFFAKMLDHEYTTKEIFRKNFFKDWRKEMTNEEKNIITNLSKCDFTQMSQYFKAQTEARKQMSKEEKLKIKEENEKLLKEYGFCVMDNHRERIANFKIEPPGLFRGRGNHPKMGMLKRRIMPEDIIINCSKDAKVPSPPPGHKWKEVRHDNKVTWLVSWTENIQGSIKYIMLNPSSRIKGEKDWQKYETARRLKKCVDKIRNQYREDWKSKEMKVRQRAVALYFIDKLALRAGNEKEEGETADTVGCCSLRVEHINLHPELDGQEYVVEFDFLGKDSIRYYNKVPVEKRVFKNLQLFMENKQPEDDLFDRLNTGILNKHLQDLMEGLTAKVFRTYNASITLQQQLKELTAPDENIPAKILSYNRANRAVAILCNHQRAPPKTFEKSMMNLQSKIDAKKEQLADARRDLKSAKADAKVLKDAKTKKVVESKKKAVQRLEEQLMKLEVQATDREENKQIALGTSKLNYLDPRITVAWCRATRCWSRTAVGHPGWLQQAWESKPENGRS
Method: The effect of the tested compounds on Topo I and II activities were evaluated by Topo I/II relaxation assays. The reaction products, relaxed DNA could be distinguished from supercoiled DNA by gel electrophoresis and visualized using gel imaging system. The activity of DNA topoisomerase I (TaKaRa, Kyoto, Japan) was determined by measuring the relaxation of supercoiled DNA pBR322 [32]. Camptothecin was used as a positive control. The reaction mixture was prepared according to the manufacture's protocol, and incubated at 37 °C for 30 min. The reactions were terminated by adding dye solution containing 1% SDS, 0.02% bromophenol blue and 50% glycerol. The mixtures were applied to 1% agarose gel and subjected to electrophoresis for 1 h, in 1× TAE buffer (40 mM Tris-acetate, 1 mM EDTA). Gels were stained for 30 min in 60 mL 1× TAE buffer with ethidium bromide (0.5 μg/mL). DNA bands were visualized by transillumination with UV light and then photographed by a Gel Doc XR+ System (BIO-RAD, Hercules, CA, USA).

HepG2 cells = assay: MTT cytotoxicity assay, HepG2; assay type: cell-based, human; details: 48 h exposure
Method: (§1) The in vitro cytotoxic activities of synthesized compounds were evaluated against two human hepatocarcinoma cell lines (SMMC-7721 and HepG2) and the human normal hepatocyte cell line (LO2) via MTT assay. All tested compounds were dissolved in DMSO and the stock solutions were diluted by DMEM medium before treatment of the cultured cells. […] Cell lines were obtained from American Tissue Culture Collection (ATCC). Briefly, different tumor cells were grown in DMEM medium supplemented with 10% fetal bovine serum, penicillin (100 U/mL), and streptomycin (50 μg/mL). Cells were harvested at log phase of growth and seeded in 96-well plates (100 μL/well at a density of 2 × 10^5 cells/mL). After 24 h incubation at 37 °C and 5% CO2 to allow cell attachment, cultures were exposed to various concentrations of the isolated compounds for 48 h. Finally, MTT solution (2.5 mg/mL in PBS) was added (40 μL/well). Plates were further incubated for 4 h at 37 °C, and the formazan crystals formed were dissolved by adding 150 μL/well of DMSO. Absorption at 570 nm was measured with an ELISA plate reader. […] Doxorubicin, camptothecin, and etoposide (VP-16) were co-assayed as positive controls.

SMMC-7721 cells = assay: MTT cytotoxicity assay, SMMC-7721; assay type: cell-based, human; details: 48 h exposure
Method: as §1

Human Topoisomerase IIα = target: T2, Human Topoisomerase IIα (Homo sapiens, UniProt P11388); assay: Topoisomerase II relaxation assay (supercoiled pBR322); assay type: biochemical; details: for inhibition at 20 µM: 20 μM compound, read-out: Topo II Inhibition (%) 20 μM; for inhibition at 100 µM: 100 μM compound, read-out: Topo II Inhibition (%) 100 μM
T2 construct: purchased USB, Affymetrix, Waltham, MA, USA
Method: The effect of the tested compounds on Topo I and II activities were evaluated by Topo I/II relaxation assays. The reaction products, relaxed DNA could be distinguished from supercoiled DNA by gel electrophoresis and visualized using gel imaging system. Human Topoisomerase IIα activity was detected by measuring the relaxation of supercoiled pBR322 plasmid DNA [22]. […] For inhibition studies, the compounds were pre-incubated with human Topo IIα and DNA for 15 min. Compounds were used at the appropriate concentrations by dissolving in 2% (v/v) DMSO. DMSO didn't show detrimental effect on the enzyme activity at concentration up to 2% (v/v). Reaction mixture was incubated at 37 °C for 30 min and stopped by the addition of 7 mM EDTA. Reaction product was mixed with DNA loading dye and electrophoresed on 1% TAE-Agarose. The gel was stained with ethidium bromide (0.5 μg/mL) for 30 min, destained twice in 1× TAE buffer, and then visualized using a BIO-RAD Gel Doc XR+ System. Etoposide (VP-16) was co-assayed as a positive control.

LO2 cells = assay: MTT cytotoxicity assay, normal hepatocyte LO2; assay type: cell-based; details: Homo sapiens, L02, 48 h exposure, normal hepatocyte cell line
Method: as §1

T2 sequence (P11388 whole entry): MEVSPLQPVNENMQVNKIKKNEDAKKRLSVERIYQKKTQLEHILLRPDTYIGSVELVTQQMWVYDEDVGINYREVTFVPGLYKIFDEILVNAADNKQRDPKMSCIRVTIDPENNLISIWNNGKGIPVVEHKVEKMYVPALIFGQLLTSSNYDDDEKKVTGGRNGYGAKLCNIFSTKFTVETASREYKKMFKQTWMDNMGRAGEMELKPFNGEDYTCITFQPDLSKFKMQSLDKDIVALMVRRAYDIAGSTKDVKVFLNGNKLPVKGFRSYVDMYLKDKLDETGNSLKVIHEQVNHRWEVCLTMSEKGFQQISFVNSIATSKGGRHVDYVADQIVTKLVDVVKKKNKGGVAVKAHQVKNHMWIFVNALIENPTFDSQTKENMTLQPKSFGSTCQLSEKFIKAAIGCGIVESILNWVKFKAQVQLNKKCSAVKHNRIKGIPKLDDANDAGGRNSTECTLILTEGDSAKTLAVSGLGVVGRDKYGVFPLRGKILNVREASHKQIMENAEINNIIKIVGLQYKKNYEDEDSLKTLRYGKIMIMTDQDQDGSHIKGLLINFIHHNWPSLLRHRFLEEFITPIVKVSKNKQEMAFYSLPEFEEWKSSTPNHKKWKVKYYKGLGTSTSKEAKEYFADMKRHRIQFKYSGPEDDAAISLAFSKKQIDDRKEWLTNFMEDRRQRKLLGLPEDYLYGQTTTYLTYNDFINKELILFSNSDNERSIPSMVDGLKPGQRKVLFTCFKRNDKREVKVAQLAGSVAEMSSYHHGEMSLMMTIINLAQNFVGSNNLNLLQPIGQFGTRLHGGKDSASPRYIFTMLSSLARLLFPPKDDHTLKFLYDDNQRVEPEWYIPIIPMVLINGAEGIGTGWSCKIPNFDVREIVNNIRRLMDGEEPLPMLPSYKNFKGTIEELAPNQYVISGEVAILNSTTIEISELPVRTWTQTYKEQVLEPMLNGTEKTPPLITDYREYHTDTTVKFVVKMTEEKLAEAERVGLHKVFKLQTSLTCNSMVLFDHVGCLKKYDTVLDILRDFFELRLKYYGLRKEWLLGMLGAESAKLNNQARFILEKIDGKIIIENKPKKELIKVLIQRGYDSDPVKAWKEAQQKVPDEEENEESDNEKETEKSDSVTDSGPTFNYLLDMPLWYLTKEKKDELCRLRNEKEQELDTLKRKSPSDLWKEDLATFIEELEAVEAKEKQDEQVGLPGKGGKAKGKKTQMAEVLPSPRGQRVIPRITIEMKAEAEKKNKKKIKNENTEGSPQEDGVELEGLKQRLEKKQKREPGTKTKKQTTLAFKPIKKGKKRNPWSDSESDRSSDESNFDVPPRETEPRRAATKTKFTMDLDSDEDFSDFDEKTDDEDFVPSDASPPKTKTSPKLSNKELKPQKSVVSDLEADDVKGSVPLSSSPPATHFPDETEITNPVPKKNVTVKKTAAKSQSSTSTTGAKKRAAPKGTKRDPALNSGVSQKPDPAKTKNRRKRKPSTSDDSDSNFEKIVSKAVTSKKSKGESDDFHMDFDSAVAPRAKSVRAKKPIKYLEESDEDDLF

SMILES | inhibition at 20 µM (DNA topoisomerase I) | inhibition at 100 µM (DNA topoisomerase I) | melting point | inhibition at 20 µM (Human Topoisomerase IIα) | inhibition at 100 µM (Human Topoisomerase IIα) | IC50 (HepG2 cells; Homo sapiens, HepG2, 48 h) | IC50 (SMMC-7721 cells; Homo sapiens, SMMC-7721, 48 h) | IC50 (LO2 cells) | IC50 (HepG2 cells) | IC50 (SMMC-7721 cells)
Cc1ccc2[nH]c3c(c2c1)C[C@@]1(C)C(CC[C@]2(C)C1CC=C1C4[C@@H](C)[C@H](C)CC[C@]4(C(=O)NCCN)CC[C@]12C)C3(C)C (stereo partly drawn) [4a, N-(2-Aminoethyl)-5′-methyl-1′H-ursa-2,12-dieno[3,2-b]indol-28-carboxamide] | 5.6% | 15.1% | 228 to 230 °C | 25.9% | 69.7% | 3.31 ± 0.35 µM | 3.5 ± 0.61 µM | 29.6 ± 2.12 µM | – | –
Cc1ccc2[nH]c3c(c2c1)C[C@@]1(C)C(CC[C@]2(C)C1CC=C1C4[C@@H](C)[C@H](C)CC[C@]4(C(=O)NCCCN4CCOCC4)CC[C@]12C)C3(C)C (stereo partly drawn) [5e, N-(3-Morpholinopropyl)-5′-methyl-1′H-ursa-2,12-dieno[3,2-b]indol-28-carboxamide] | – | 0% | 108 to 110 °C | 31.5% | 70.8% | 5.27 ± 0.67 µM | 3.75 ± 0.37 µM | 28.6 ± 0.76 µM | – | –
CC[C@@]1(O)C(=O)OCc2c1cc1n(c2=O)Cc2cc3ccccc3nc2-1 [CPT, camptothecin, reference compound] | 38.2% | 75.1% | – | – | – | 1.12 ± 0.26 µM | 0.56 ± 0.18 µM | 8.93 ± 0.52 µM | – | –
COc1cccc2c1C(=O)c1c(O)c3c(c(O)c1C2=O)C[C@@](O)(C(=O)CO)C[C@@H]3O[C@H]1C[C@H](N)[C@H](O)[C@H](C)O1 [DOX, doxorubicin, reference compound] | – | – | – | – | – | 0.81 ± 0.19 µM | 0.68 ± 0.11 µM | 5.32 ± 0.67 µM | – | –
Cc1ccc2[nH]c3c(c2c1)C[C@@]1(C)C(CC[C@]2(C)C1CC=C1C4[C@@H](C)[C@H](C)CC[C@]4(C(=O)NCCN4CCCCC4)CC[C@]12C)C3(C)C (stereo partly drawn) [4d, N-(2-(Piperidin-1-yl)ethyl)-5′-methyl-1′H-ursa-2,12-dieno[3,2-b]indol-28-carboxamide] | 0% | 13% | 195 to 197 °C | 32.7% | 71.7% | ~1 µM | ~1 µM | 16 ± 1.07 µM | 1.47 ± 0.12 µM | 1.75 ± 0.11 µM
Cc1ccc2[nH]c3c(c2c1)C[C@@]1(C)C(CC[C@]2(C)C1CC=C1C4[C@@H](C)[C@H](C)CC[C@]4(C(=O)NCCN4CCN(C)CC4)CC[C@]12C)C3(C)C (stereo partly drawn) [4f, N-(2-(4-Methylpiperazin-1-yl)ethyl)-5′-methyl-1′H-ursa-2,12-dieno[3,2-b]indol-28-carboxamide] | – | 0% | 188 to 190 °C | 31.3% | 73.7% | ~1 µM | ~1 µM | 18.3 ± 0.78 µM | 1.35 ± 0.17 µM | 1.24 ± 0.16 µM
CCN(CC)CCNC(=O)[C@]12CC[C@@H](C)[C@H](C)C1C1=CCC3[C@@]4(C)Cc5c([nH]c6ccc(C)cc56)C(C)(C)C4CC[C@@]3(C)[C@]1(C)CC2 (stereo partly drawn) [4c, N-(2-(Diethylamino)ethyl)-5′-methyl-1′H-ursa-2,12-dieno[3,2-b]indol-28-carboxamide] | – | 0% | – | 38.3% | 68.7% | 2.24 ± 0.32 µM | 2.1 ± 0.21 µM | 26.4 ± 1.32 µM | – | –

The next lines start with results.

inhibition at 20 µM (DNA topoisomerase I) | inhibition at 100 µM (DNA topoisomerase I) | melting point | inhibition at 20 µM (Human Topoisomerase IIα) | inhibition at 100 µM (Human Topoisomerase IIα) | SMILES | IC50 (HepG2 cells; Homo sapiens, HepG2, 48 h) | IC50 (SMMC-7721 cells; Homo sapiens, SMMC-7721, 48 h) | IC50 (LO2 cells) | IC50 (HepG2 cells) | IC50 (SMMC-7721 cells)
– | 0% | – | 39.8% | 81.8% | Cc1ccc2[nH]c3c(c2c1)C[C@@]1(C)C(CC[C@]2(C)C1CC=C1C4[C@@H](C)[C@H](C)CC[C@]4(C(=O)NCCCCN4CCN(C)CC4)CC[C@]12C)C3(C)C (stereo partly drawn) [6f, N-(4-(4-Methylpiperazin-1-yl)butyl)-5′-methyl-1′H-ursa-2,12-dieno[3,2-b]indol-28-carboxamide] | ~1 µM | ~1 µM | 13.7 ± 1.28 µM | 1.01 ± 0.12 µM | 0.65 ± 0.07 µM
13.7% | 28.8% | 256 to 258 °C | 27% | 71.1% | Cc1ccc2[nH]c3c(c2c1)C[C@@]1(C)C(CC[C@]2(C)C1CC=C1C4[C@@H](C)[C@H](C)CC[C@]4(C(=O)NCCCCN)CC[C@]12C)C3(C)C (stereo partly drawn) [6a, N-(4-Aminobutyl)-5′-methyl-1′H-ursa-2,12-dieno[3,2-b]indol-28-carboxamide] | ~1 µM | ~1 µM | 15.2 ± 1.15 µM | 1.32 ± 0.21 µM | 1.21 ± 0.19 µM
0% | 16.8% | 132 to 134 °C | 35.2% | 70% | CCN(CC)CCCCNC(=O)[C@]12CC[C@@H](C)[C@H](C)C1C1=CCC3[C@@]4(C)Cc5c([nH]c6ccc(C)cc56)C(C)(C)C4CC[C@@]3(C)[C@]1(C)CC2 (stereo partly drawn) [6c, N-(4-(Diethylamino)butyl)-5′-methyl-1′H-ursa-2,12-dieno[3,2-b]indol-28-carboxamide] | 3.45 ± 0.25 µM | 3.62 ± 0.23 µM | 28.4 ± 2.98 µM | – | –
0% | 15.1% | 163 to 165 °C | 31.7% | 69% | Cc1ccc2[nH]c3c(c2c1)C[C@@]1(C)C(CC[C@]2(C)C1CC=C1C4[C@@H](C)[C@H](C)CC[C@]4(C(=O)NCCCCN(C)C)CC[C@]12C)C3(C)C (stereo partly drawn) [6b, N-(4-(Dimethylamino)butyl)-5′-methyl-1′H-ursa-2,12-dieno[3,2-b]indol-28-carboxamide] | 2.91 ± 0.18 µM | 2.43 ± 0.21 µM | 18.2 ± 1.64 µM | – | –
– | 0% | – | 28.2% | 65.6% | Cc1ccc2[nH]c3c(c2c1)C[C@@]1(C)C(CC[C@]2(C)C1CC=C1C4[C@@H](C)[C@H](C)CC[C@]4(C(=O)NCCCCN4CCOCC4)CC[C@]12C)C3(C)C (stereo partly drawn) [6e, N-(4-Morpholinobutyl)-5′-methyl-1′H-ursa-2,12-dieno[3,2-b]indol-28-carboxamide] | 7.84 ± 2.31 µM | 4.55 ± 1.56 µM | 35.4 ± 3.13 µM | – | –
– | – | – | 47.8% | 88.5% | COc1cc([C@@H]2c3cc4c(cc3[C@@H](O[C@@H]3O[C@@H]5CO[C@@H](C)O[C@H]5[C@H](O)[C@H]3O)[C@H]3COC(=O)[C@H]23)OCO4)cc(OC)c1O [VP-16, etoposide, reference compound] | 0.57 ± 0.16 µM | 0.36 ± 0.1 µM | 5.92 ± 0.29 µM | – | –
